Drawing on patent US8163777B2, “Benzimidazolyl-pyridine compounds for inflammation and immune-related uses” (Synta Pharmaceuticals Corp., priority 2006, dated 2012), this text covers IC50 for 35 compounds.

Usually IC50 stands for the concentration at which inhibition is half-maximal. Low values mean higher potency, high ones lower potency.

This test concerns IL-2 production. Put plainly: Inhibition of IL-2 production in PHA-activated Jurkat cells (ELISA). Particulars: Homo sapiens, PHA 2.5 μg/mL, 20 hours. Type of test: cell-based. The protocol: Jurkat cells were placed in a 96 well plate (0.5 million cells per well in 1% FBS medium) then test compounds of this invention were added at different concentrations. After 10 minutes, the cells were activated with PHA (final concentration 2.5 μg/mL) and incubated for 20 hours at 37° C. under CO2. The final volume was 200 μL. Following incubation, the cells were centrifuged and the supernatants collected and stored at −70° C. prior to assaying for IL-2 production. A commercial ELISA kit (IL-2 Eli-pair, Diaclone Research, Besancon, France) was used to detect production of IL-2, from which dose response curves were obtained. The IC50 value was calculated as the concentration at which 50% of maximum IL-2 production after stimulation was inhibited versus a non-stimulation control.

[1] abbreviates: bin given with mixed units 500 nM-1 μM.

In turn, `CC(=O)Nc1ccc2nc(C(F)(F)F)n(-c3ccc(NC(=O)c4cccc(F)c4F)cc3)c2c1` [Compound 93, 2,3-Difluoro-N-[4-(2-trifluoromethyl-6-acetylamino-benzoimidazol-1-yl)-phenyl]-benzamide] displayed an IC50 under setting [1] of 500 to 1000 nM. The same measure, in the same setting: the result for `N#C/C(=C\c1ccc(-n2c(C(F)(F)F)nc3ccccc32)cc1)c1cccc(F)c1F` [Compound 47, 1-(2,3-difluoro-phenyl)-3-[4-(2-trifluoromethyl-benzoimidazol-1-yl)-phenyl]-acrylonitrile] reads 500 to 1000 nM. The compound `COc1ccc2c(c1)nc(C(F)(F)F)n2-c1ccc(NC(=O)c2ccccc2I)nc1` [Compound 187, 2-Iodo-N-[5-(5-methoxy-2-trifluoromethyl-benzoimidazol-1-yl)-pyridin-2-yl]-benzamide] showed a half-inhibitory concentration (IC50) (binned values) of under 100 nM. With `COc1ccc2c(c1)nc(C(F)(F)F)n2-c1ccc(NC(=O)Cc2ccccc2)cc1` [Compound 95, 2-phenyl-N-[4-(2-trifluoromethyl-5-methoxy-benzoimidazol-1-yl)-phenyl]-acetamide], under setting [1], the half-maximal inhibitory concentration (IC50) lay within 500 to 1000 nM. The compound `COc1ccc2c(c1)nc(C(F)(F)F)n2-c1ccc(NC(=O)c2c(F)cccc2F)nc1` [Compound 163, 2,6-difluoro-N-(5-(5-methoxy-2-(trifluoromethyl)-1H-benzo[d]imidazol-1-yl)pyridin-2-yl)benzamide] yielded an IC50 (binned values) of under 100 nM. Regarding `O=C(Nc1ccc(-n2c(C(F)(F)F)nc3cccnc32)cc1)c1cc(F)ccc1F` [Compound 56, 2,5-Difluoro-N-[4-(2-trifluoromethyl-imidazo[4,5-b]pyrid-3-yl)-phenyl]-benzamide], the IC50 under setting [1] fell in the range of 500 to 1000 nM. Compound `COc1ccc2c(c1)nc(C(F)(F)F)n2-c1ccc(NC(=O)c2ccccc2Br)nc1` [Compound 180, 2-Bromo-N-[5-(5-methoxy-2-trifluoromethyl-benzoimidazol-1-yl)-pyridin-2-yl]-benzamide] came in with an IC50 (binned values) of under 100 nM. Where the note is “binned values”, `O=C(Nc1ccc(-n2c(C(F)(F)F)nc3ccccc32)c(Cl)c1)c1cccc(F)c1F` [Compound 25, 2,3-Difluoro-N-[2-.chloro-4-(2-trifluoromethyl-benzoimidazol-1-yl)-phenyl]-benzamide] showed a half-maximal inhibitory concentration (IC50) of 100 to 500 nM. On the same count and under the same terms, the result for `COc1ccc2c(c1)nc(C(F)(F)F)n2-c1ccc(NC(=O)c2ccc(Br)cc2)nc1` [Compound 196, 4-Bromo-N-[5-(5-methoxy-2-trifluoromethyl-benzoimidazol-1-yl)-pyridin-2-yl]-benzamide] reads 100 to 500 nM. In the case of `COc1ccc(CC(=O)Nc2ccc(-n3c(C(F)(F)F)nc4cc(OC)ccc43)cc2)cc1` [Compound 92, 2-(4-Methoxy-phenyl)-N-[4-(2-trifluoromethyl-5-methoxy-benzoimidazol-1-yl)-phenyl]-acetamide], the IC50 under setting [1] was in the range of 500 to 1000 nM. Compound `COc1ccc2c(c1)nc(C(F)(F)F)n2-c1ccc(NC(=O)c2ccc(C)cc2)nc1` [Compound 211, N-[5-(5-Methoxy-2-trifluoromethyl-benzoimidazol-1-yl)-pyridin-2-yl]-4-methyl-benzamide] displayed a half-maximal inhibitory concentration (IC50) (binned values) of over 1000 nM.

`COc1ccc2c(c1)nc(C(F)(F)F)n2-c1ccc(NC(=O)C2CC2)nc1` [Compound 172, Cyclopropanecarboxylic acid [5-(5-methoxy-2-trifluoromethyl-benzoimidazol-1-yl)-pyridin-2-yl]-amide] had an IC50 (binned values) of over 1000 nM.

For the setting “binned values”, `COc1ccc2c(c1)nc(C(F)(F)F)n2-c1ccc(NC(=O)c2cccc(N(C)C)c2)nc1` [Compound 208, 3-Dimethylamino-N-[5-(5-methoxy-2-trifluoromethyl-benzoimidazol-1-yl)-pyridin-2-yl]-benzamide] registered a concentration for half-maximal inhibition (IC50) of over 1000 nM. Same read-out and setting: the value for `CCC(C)C(=O)Nc1ccc(-n2c(C(F)(F)F)nc3cc(OC)ccc32)cn1` (centres unmarked) [Compound 168, N-[5-(5-Methoxy-2-trifluoromethyl-benzoimidazol-1-yl)-pyridin-2-yl]-2-methyl-butyramide] was 100 to 500 nM; that for `COc1ccc2c(c1)nc(C(F)(F)F)n2-c1ccc(NC(=O)c2ccc(C#N)cc2)nc1` [Compound 166, 4-Cyano-N-[5-(5-methoxy-2-trifluoromethyl-benzoimidazol-1-yl)-pyridin-2-yl]-benzamide] was 100 to 500 nM; that for `COc1ccc2c(c1)nc(C(F)(F)F)n2-c1ccc(NC(=O)c2ccc(Cl)cc2F)nc1` [Compound 177, 4-Chloro-2-fluoro-N-[5-(5-methoxy-2-trifluoromethyl-benzoimidazol-1-yl)-pyridin-2-yl]-benzamide] was 100 to 500 nM.

As for `COc1ccc2c(c1)nc(C(F)(F)F)n2-c1ccc(NC(=O)c2cccc(C#N)c2)nc1` [Compound 183, 3-Cyano-N-[5-(5-methoxy-2-trifluoromethyl-benzoimidazol-1-yl)-pyridin-2-yl]-benzamide], the half-maximal inhibitory concentration (IC50) (binned values) fell in the range of 100 to 500 nM. The same measure, in the same setting: the value for `COc1ccc2c(c1)nc(C(F)(F)F)n2-c1ccc(NC(C)=O)nc1` [Compound 164, N-[5-(5-Methoxy-2-trifluoromethyl-benzoimidazol-1-yl)-pyridin-2-yl]-acetamide] was over 1000 nM. The same measure, in the same setting: the result for `COc1ccc2c(c1)nc(C(F)(F)F)n2-c1ccc(NC(=O)C2CCCC2)nc1` [Compound 193, Cyclopentanecarboxylic acid [5-(5-methoxy-2-trifluoromethyl-benzoimidazol-1-yl)-pyridin-2-yl]-amide] reads under 100 nM.

Compound `COc1ccc2c(c1)nc(C(F)(F)F)n2-c1ccc(NC(=O)c2cccc(C(F)(F)F)c2)cc1` [Compound 91, 3-Trifluoromethyl-N-[4-(2-trifluoromethyl-5-methoxy-benzoimidazol-1-yl)-phenyl]-benzamide] showed an IC50 under setting [1] of 500 to 1000 nM. Take `COc1ccc2c(c1)nc(C(F)(F)F)n2-c1ccc(NC(=O)c2ccc(F)cc2)nc1` [Compound 170, 4-Fluoro-N-[5-(5-methoxy-2-trifluoromethyl-benzoimidazol-1-yl)-pyridin-2-yl]-benzamide]: the IC50 (binned values) lay in the range of 100 to 500 nM. Still for that read-out and setting: the value for `COc1ccc2c(c1)nc(C(F)(F)F)n2-c1ccc(NC(=O)c2ccccc2Cl)nc1` [Compound 178, 2-Chloro-N-[5-(5-methoxy-2-trifluoromethyl-benzoimidazol-1-yl)-pyridin-2-yl]-benzamide] was under 100 nM; that for `COc1ccc2c(c1)nc(C(F)(F)F)n2-c1ccc(NC(=O)c2ncc[nH]2)nc1` [Compound 216, 1H-Imidazole-2-carboxylic acid [5-(5-methoxy-2-trifluoromethyl-benzoimidazol-1-yl)-pyridin-2-yl]-amide] was over 1000 nM. Under setting [1], `O=C(Nc1ccc(-n2c(C(F)(F)F)nc3ccccc32)cc1)c1cccnc1` [Compound 45, N-[4-(2-trifiuoromethyl-benzoimidazol-1-yl)-phenyl]-nicotinamide] returned an IC50 of 500 to 1000 nM.

Where the note is “binned values”, `CCCCNc1ccc(-n2c(C(F)(F)F)nc3cc(OC)ccc32)cn1` [Compound 165, Butyl[5-(5-methoxy-2-trifluoromethyl-benzoimidazol-1-yl)-pyridin-2-yl]-amine] displayed an IC50 of 100 to 500 nM. The compound `COc1ccc2c(c1)nc(C(F)(F)F)n2-c1ccc(NC(=O)C2CCC2)nc1` [Compound 169, Cyclobutanecarboxylic acid [5-(5-methox-2-trifluoromethyl-benzoimidazol-1-yl)-pyridin-2-yl]-amide] came in with an IC50 under setting [1] of 500 to 1000 nM. Compound `CCNc1ccc(-n2c(C(F)(F)F)nc3cc(OC)ccc32)nc1` [Compound 162, Ethyl-[6-(5-methoxy-2-trifluoromethyl-benzoimidazol-1-yl)-pyridin-3-yl]-amine] yielded a half-inhibitory concentration (IC50) (binned values) of over 1000 nM. The compound `COc1ccc2c(c1)nc(C(F)(F)F)n2-c1ccc(NC(=O)c2ccc([N+](=O)[O-])cc2)nc1` [Compound 190, N-[5-(5-Methoxy-2-trifluoromethyl-benzoimidazol-1-yl)-pyridin-2-yl]-4-nitro-benzamide] had an IC50 (binned values) of 100 to 500 nM. Same read-out and setting: the result for `CCCc1ccc(C(=O)Nc2ccc(-n3c(C(F)(F)F)nc4cc(OC)ccc43)cn2)cc1` [Compound 207, N-[5-(5-Methoxy-2-trifluoromethyl-benzoimidazol-1-yl)-pyridin-2-yl]-4-propyl-benzamide] reads over 1000 nM; that for `COc1ccc2c(c1)nc(C(F)(F)F)n2-c1ccc(NC(=O)c2c(F)cccc2Cl)nc1` [Compound 173, 2-Chloro-6-fluoro-N-[5-(5-methoxy-2-trifluoromethyl-benzoimidazol-1-yl)-pyridin-2-yl]-benzamide], under 100 nM. Regarding `COc1ccc2c(c1)nc(C(F)(F)F)n2-c1ccc(NC(=O)c2ccc(Cl)cc2)nc1` [Compound 171, 4-Chloro-N-[5-(5-methoxy-2-trifluoromethyl-benzoimidazol-1-yl)-pyridin-2-yl]-benzamide], the IC50 under setting [1] lay in the range of 500 to 1000 nM. Under “binned values”, `COc1ccc2c(c1)nc(C(F)(F)F)n2-c1ccc(NC(=O)c2ccc(F)cc2F)nc1` [Compound 175] registered a concentration for half-maximal inhibition (IC50) of under 100 nM. On the same count and under the same terms, the value for `COc1ccc2c(c1)nc(C(F)(F)F)n2-c1ccc(NC(=O)c2cccc(Br)c2)nc1` [Compound 191, 3-Bromo-N-[5-(5-methoxy-2-trifluoromethyl-benzoimidazol-1-yl)-pyridin-2-yl]-benzamide] was 100 to 500 nM. The compound `COc1ccc2c(c1)nc(C(F)(F)F)n2-c1ccc(NC(=O)c2ccc(C)cc2C)nc1` [Compound 200, N-[5-(5-Methoxy-2-trifluoromethyl-benzoimidazol-1-yl)-pyridin-2-yl]-2,4-dimethyl-benzamide] showed an IC50 under setting [1] of 500 to 1000 nM. Consider `COC(=O)c1cccc(C(=O)Nc2ccc(-n3c(C(F)(F)F)nc4cc(OC)ccc43)cn2)c1` [Compound 192, N-[5-(5-Methoxy-2-trifluoromethyl-benzoimidazol-1-yl)-pyridin-2-yl]-isophthalamic acid methyl ester], for which, under “binned values”, the IC50 fell in the range of 100 to 500 nM.
